Data as given in PubChem BioAssay (NCI).
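Five compound concentrations were applied to cells in 96-well plates for 48 hours; endpoints were derived by simple linear interpolation of the resulting dose-response curve. GI50 is the concentration that inhibits growth by half. TGI: concentration producing complete growth inhibition.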

Assays:
Experiment in all cases: NCI-60 cell line screen, 48 h
SNB-19 CNS = system: SNB-19 CNS
OVCAR-8 ovarian = system: OVCAR-8 ovarian
HS 578T breast = system: HS 578T breast
TK-10 renal = system: TK-10 renal
HOP-62 NSCLC = system: HOP-62 NSCLC
CAKI-1 renal = system: CAKI-1 renal
CCRF-CEM leukemia = system: CCRF-CEM leukemia
HCT-15 colon = system: HCT-15 colon
UACC-62 melanoma = system: UACC-62 melanoma
A498 renal = system: A498 renal
NCI-H522 lung = system: NCI-H522 lung
UO-31 renal = system: UO-31 renal
NCI-H23 lung = system: NCI-H23 lung

SMILES	TGI (SNB-19 CNS)	TGI (OVCAR-8 ovarian)	TGI (HS 578T breast)	TGI (TK-10 renal)	TGI (HOP-62 NSCLC)	TGI (CAKI-1 renal)	TGI (CCRF-CEM leukemia)	TGI (HCT-15 colon)	TGI (UACC-62 melanoma)	TGI (A498 renal)	TGI (NCI-H522 lung)	TGI (UO-31 renal)	TGI (NCI-H23 lung)	GI50 (SNB-19 CNS)
COc1cc(/C=C2\CCC(C)c3c2nc(N)c(C#N)c3-c2cc(OC)c(OC)c(OC)c2)cc(OC)c1OC (stereo unspecified)	> 100 µM	40.3 µM	75.1 µM	> 100 µM	> 100 µM	> 100 µM	> 100 µM	> 100 µM	> 100 µM	> 100 µM				
COc1c(C(CC(C)C)OC(C)=O)ccc2c1C(=O)OCc1cc(C)cc(O)c1O2 (stereo unspecified)	28.7 µM	33.1 µM	50.4 µM	31.8 µM	32.8 µM	32.2 µM	> 100 µM	23.5 µM	25.5 µM	34.7 µM	26.2 µM	19.7 µM	23.3 µM	
c1ccc2c(c1)n1c(N3CCOCC3)[n+]3ccccc3c1c1c3cccc[n+]3c(N3CCOCC3)n21	> 100 µM	> 100 µM	> 100 µM	> 100 µM		> 100 µM	> 100 µM	> 100 µM	> 100 µM	> 100 µM	> 100 µM		> 100 µM	
CSC1=N/C(=C\c2ccc(Cl)cc2)C(=O)N1CN1CCOCC1	> 100 µM	61.6 µM	> 100 µM	> 100 µM	> 100 µM		> 100 µM	> 100 µM	> 100 µM	> 100 µM	> 100 µM	> 100 µM	> 100 µM	
CC(C)[Si](OCC/C=C/C1CCC(=O)C1C(O)C1CCCCC1)(C(C)C)C(C)C (stereo unspecified)	32.6 µM	28.8 µM	36.5 µM	32.7 µM	31.3 µM	28.5 µM	44.6 µM	30.6 µM	29.7 µM	33.9 µM	25.3 µM	30.2 µM	29 µM	
CN(C)Cc1cc(C(=O)/C=C/c2c(Cl)cccc2Cl)cc(CN(C)C)c1O	31 µM	15.2 µM	38.7 µM	27.8 µM	20.2 µM	6.74 µM	59 µM	24.2 µM		22.5 µM	10.7 µM	8.85 µM	34.2 µM	
CCCN(CCC)C(=S)N/N=C/c1cccc(C)n1	> 100 µM	0.729 µM	> 100 µM	0.832 µM		4.65 µM	0.275 µM	24.5 µM	9.45 µM	0.473 µM	2.51 µM	12.2 µM	> 100 µM	
COc1ccccc1NC(=S)Nc1cccc(C)n1	> 100 µM	> 100 µM	> 100 µM	> 100 µM	> 100 µM	> 100 µM	> 100 µM	> 100 µM	> 100 µM	> 100 µM	45.9 µM	> 100 µM		
c1ccc2c(OCC3CO3)ccc(OCC3CO3)c2c1 (stereo unspecified)	21 µM	10.4 µM	9.73 µM	26.7 µM	10.9 µM	3.32 µM	11.2 µM	14.9 µM	12.2 µM	33.9 µM	22.5 µM	3.15 µM	6.67 µM	
CC1N(O)C(c2ccccc2)C(c2ccccc2)=[N+]1[O-] (stereo unspecified)	> 100 µM	> 100 µM	> 100 µM	> 100 µM	> 100 µM	> 100 µM	> 100 µM	> 100 µM	> 100 µM	> 100 µM		> 100 µM	> 100 µM	
COC(=O)C(Cc1ccccc1)C(=O)NC(CNC(=O)OCc1ccccc1)C(=O)OCc1ccccc1 (stereo unspecified)	> 100 µM	> 100 µM	> 100 µM	98 µM	> 100 µM	> 87.2 µM	48.9 µM	> 100 µM	49.3 µM	> 81.4 µM	72.3 µM	> 94.4 µM	> 100 µM	
OC1OC(c2ccc[nH]2)C(F)(F)C(F)(F)C1(F)F (stereo unspecified)	> 100 µM	> 100 µM	> 100 µM	> 100 µM	> 100 µM	> 100 µM	> 100 µM	> 100 µM	> 100 µM	> 100 µM	> 100 µM	> 100 µM		
CC1(C)C[C@H]2C3=CC[C@@H]4[C@@]5(C)CC[C@H](O)C(C)(C)[C@@H]5CC[C@@]4(C)[C@]3(C)C[C@@H](O)[C@@]23C[C@@H]1OC3=O	> 100 µM	> 100 µM	> 100 µM	> 100 µM	> 100 µM	> 100 µM	> 100 µM	> 100 µM	> 100 µM	> 100 µM	> 100 µM	> 100 µM	> 100 µM	
O=C(O)c1ccccc1C(=O)OCC1CCCN2CCCCC12 (stereo unspecified)	> 100 µM	> 100 µM	> 100 µM	> 100 µM	> 100 µM	> 100 µM	> 100 µM	> 100 µM	> 100 µM	> 100 µM		> 100 µM	> 100 µM	
CC1=CC[C@@]2(C)[C@@H]([C@@H]1C)[C@H]1CC[C@@H]3[C@@]4(C)CC[C@H](O)C(C)(C)[C@@H]4CC[C@@]3(C)[C@]1(C)C[C@@H]2O	> 66.4 µM	28.7 µM	> 74 µM	> 70.7 µM	38.6 µM	> 83.2 µM	> 53.1 µM	> 71.6 µM	> 68.8 µM	> 39.8 µM	8.15 µM	> 100 µM	> 55.1 µM	
CC1=C(C#N)C(=O)N(/N=C/c2ccc(Cl)cc2)C(=O)/C1=c1\o/c(=C2/C(=O)N(/N=C/c3ccc(Cl)cc3)C(=O)C(C#N)=C2C)c2nccnc12	> 100 µM	> 100 µM	> 100 µM			> 100 µM	> 100 µM	> 100 µM	> 100 µM	> 100 µM	> 100 µM	> 100 µM	> 100 µM	
COC(=O)c1cccc(C)c1C1CN=NC12Cc1c(ccc(C)c1C)C2=O (stereo unspecified)	> 100 µM	> 100 µM	> 100 µM	> 100 µM	> 100 µM	> 100 µM	> 100 µM	> 100 µM		> 100 µM	> 100 µM	> 100 µM	> 100 µM	

SMILES	TGI (SNB-19 CNS)	TGI (OVCAR-8 ovarian)	TGI (HS 578T breast)	TGI (TK-10 renal)	TGI (HOP-62 NSCLC)	TGI (CAKI-1 renal)	TGI (CCRF-CEM leukemia)	TGI (HCT-15 colon)	TGI (UACC-62 melanoma)	TGI (A498 renal)	TGI (NCI-H522 lung)	TGI (UO-31 renal)	TGI (NCI-H23 lung)	GI50 (SNB-19 CNS)
COc1c(C(=O)O)cccc1-c1cccc(C(=O)NCCN(CCNC(=O)c2cccc(-c3cccc(C(=O)O)c3OC)c2OC)CCNC(=O)c2cccc(-c3cccc(C(=O)O)c3OC)c2OC)c1OC	> 100 µM	> 100 µM	81.1 µM	> 100 µM	> 100 µM	> 100 µM	> 100 µM	> 100 µM	89.7 µM	96.2 µM	75.8 µM	> 100 µM	> 100 µM	
CCC1=NC(N/N=C/c2ccccc2O)=N/C1=C\c1ccccc1O	> 100 µM	> 69.2 µM	> 83.7 µM	> 54.6 µM	39.2 µM	> 100 µM	> 100 µM	12.6 µM	48.4 µM	85.4 µM	21 µM	20.4 µM	> 74.7 µM	
CCN(CC)CCN1CCN=c2c3cc(OC)ccc3n3cnc4ccc1c2c43	3.04 µM	2.26 µM	4.71 µM	4.93 µM	3.46 µM	2.23 µM	1.71 µM	1.9 µM	7.3 µM	1.82 µM	3.86 µM	4.42 µM	4.61 µM	
COc1ccc(OC)c2c(=O)cc(-c3ccccc3)[nH]c12	> 100 µM	> 100 µM	> 100 µM	> 100 µM	> 100 µM		> 100 µM	> 100 µM	> 100 µM	> 100 µM	> 100 µM	> 100 µM	> 100 µM	
C#CCOC(=O)C(N)CS (stereo unspecified)		> 100 µM	> 100 µM	> 100 µM	> 100 µM	> 100 µM	> 100 µM		> 100 µM	> 100 µM	> 100 µM	> 100 µM	> 100 µM	
Cc1ccc(S(=O)(=O)Oc2coc(CO)cc2=O)cc1	27.8 µM	> 50 µM	> 72.7 µM	44.2 µM	34 µM	10.4 µM	10.7 µM	> 49.5 µM	25.3 µM	30.2 µM	3.71 µM	27.3 µM	35.3 µM	
CNC(=O)C(C)NC(=O)C(Cc1ccccc1)NC(=O)OC(C)(C)C (stereo unspecified)	> 100 µM	> 100 µM	> 100 µM	> 100 µM	> 100 µM	> 100 µM	> 100 µM	> 100 µM	> 100 µM	> 100 µM	> 100 µM	> 100 µM	> 100 µM	
CCOC(=O)C(NC(=O)NCc1ccc(F)cc1)C(F)(F)F (stereo unspecified)	> 100 µM	> 100 µM	> 100 µM	> 100 µM			> 100 µM	> 100 µM		> 100 µM		> 100 µM	> 100 µM	
O=C(/C=C/c1c(O)c2ccccc2[nH]c1=O)CC(=O)C(=O)Nc1cccc(O)c1	> 100 µM	> 100 µM	> 100 µM	> 100 µM		> 100 µM	> 100 µM	> 100 µM	> 100 µM	> 100 µM	> 100 µM	> 100 µM	> 100 µM	
CC1=C(C(=O)OC23CC4CC(CC(C4)C2)C3)C(c2ccccc2OC(F)F)C(C(=O)OC23CC4CC(CC(C4)C2)C3)=C(C)N1 (stereo unspecified)	> 100 µM	> 100 µM	> 100 µM		> 100 µM	> 100 µM	> 100 µM	> 100 µM	> 100 µM	> 100 µM	> 100 µM	> 100 µM	> 100 µM	
CC(=O)CCC(=O)CC(O)(C(F)(F)F)C(F)(F)F	30 µM	37.9 µM	38.5 µM	44.1 µM	33.6 µM		51 µM	35.4 µM	32 µM	17.6 µM		27.8 µM	43.2 µM	
Cc1cc(Cl)ccc1NC(=O)/C(CC(=O)CC(c1ccccc1)c1c(O)c2ccccc2oc1=O)=N\O (stereo unspecified)	> 100 µM	> 100 µM	> 100 µM	> 100 µM	> 100 µM	> 100 µM	> 100 µM	> 100 µM	> 100 µM		> 100 µM	> 100 µM	> 100 µM	
Cc1cc(C)n(C(=O)C(C)Sc2nnc(SC(C)C(=O)n3nc(C)cc3C)s2)n1 (stereo unspecified)	> 100 µM	> 100 µM	> 100 µM	> 100 µM	> 100 µM	> 100 µM	> 100 µM	> 100 µM	> 100 µM	> 100 µM		> 100 µM	> 100 µM	
C=C1[C@H](OCC(C)C)[C@@H](OCC(C)C)[C@@H](O)C(C)(C)/C=C/[C@H](C)C(=O)[C@@]2(O)C[C@H](C)[C@H](O)[C@@H]2[C@H]1OCC(C)C	> 7.5 µM	> 7.5 µM	> 7.5 µM	> 7.5 µM	> 7.5 µM	> 7.5 µM		> 7.5 µM	> 7.5 µM	> 7.5 µM	> 7.5 µM	> 7.5 µM	> 7.5 µM	
C/C(=C\c1csc(C)n1)[C@@H]1C[C@@H]2O[C@]2(C)CCC[C@H](C)[C@H](O)[C@@H](C)C(=O)C(C)(C)[C@@H](O)CC(=O)O1 (tested in a mixture with another compound)	> 1 µM	> 0.33 µM	> 1 µM	> 1 µM	> 1 µM	> 1 µM		> 1 µM	> 1 µM	> 1 µM	0.00766 µM	> 1 µM	> 1 µM	0.025 µM
CCOC(=O)C1C(C(C)C)C2(C#N)C(=N)OC1(C)C2(C#N)C#N (stereo unspecified)	> 100 µM	> 100 µM	> 100 µM	> 100 µM		23 µM	> 100 µM	> 100 µM	> 100 µM	> 100 µM	> 100 µM	> 100 µM	> 100 µM	
O=S(=O)([N-]c1nc2ccccc2nc1-[n+]1ccccc1)c1ccccc1	> 100 µM	> 100 µM	> 100 µM	> 100 µM	> 100 µM	> 100 µM	30.7 µM	> 100 µM	> 100 µM		> 100 µM	> 100 µM	> 100 µM	
